Test results reported in PubChem BioAssay AID1963861 (Molecular Pharmacology Branch, DTP, NCI, 2024).

Tested on: 885724-159-R-J1-PDC KRAS PDC multicell spheroid viability
Assay: Anticancer human tumor 885724-159-R-J1-PDC patient-derived pancreatic adenocarcinoma cell line growth inhibition [KRAS2]
Conditions: for viability, T/C: stronger effect = lower value
Outline: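 KRAS-mutant tumor cells were grown as spheroids with HUVEC endothelial cells and human MSCs as stroma. Targeted agents were tested alone and with KRAS pathway inhibitors. Doses started at or near clinical Cmax, or 10 microM, descending half-log.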

[1] = curve of first compound, second compound 0.1 µM
[2] = curve of first compound, second compound 0.316 µM
[3] = curve of first compound, second compound 1 µM
[4] = curve of first compound, second compound 3.16 µM
[5] = curve of first compound, second compound 10 µM
[6] = second compound 0.1 µM, first compound 0.0316 µM
[7] = second compound 0.1 µM, first compound 0.1 µM
[8] = second compound 0.1 µM, first compound 0.316 µM
[9] = second compound 0.1 µM, first compound 1 µM
[10] = second compound 0.1 µM, first compound 3.16 µM
[11] = second compound 0.316 µM, first compound 0.0316 µM
[12] = second compound 0.316 µM, first compound 0.1 µM
[13] = second compound 0.316 µM, first compound 0.316 µM
[14] = second compound 0.316 µM, first compound 1 µM
[15] = second compound 0.316 µM, first compound 3.16 µM
[16] = second compound 1 µM, first compound 0.0316 µM
[17] = second compound 1 µM, first compound 0.1 µM
[18] = second compound 1 µM, first compound 0.316 µM
[19] = second compound 1 µM, first compound 1 µM
[20] = second compound 1 µM, first compound 3.16 µM
[21] = second compound 3.16 µM, first compound 0.0316 µM
[22] = second compound 3.16 µM, first compound 0.1 µM
[23] = second compound 3.16 µM, first compound 0.316 µM
[24] = second compound 3.16 µM, first compound 1 µM
[25] = second compound 3.16 µM, first compound 3.16 µM
[26] = second compound 10 µM, first compound 0.0316 µM
[27] = second compound 10 µM, first compound 0.1 µM
[28] = second compound 10 µM, first compound 0.316 µM
[29] = second compound 10 µM, first compound 1 µM
[30] = second compound 10 µM, first compound 3.16 µM
[31] = second compound 0.1 µM, first compound 10 µM
[32] = second compound 0.316 µM, first compound 10 µM
[33] = second compound 1 µM, first compound 10 µM
[34] = second compound 3.16 µM, first compound 10 µM
[35] = second compound 10 µM, first compound 10 µM
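Note: spheroids exposed to agents for 7 days before readout.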

| SMILES | IC50 [1] | IC50 [2] | IC50 [3] | IC50 [4] | IC50 [5] | viability, T/C [6] | viability, T/C [7] | viability, T/C [8] | viability, T/C [9] | viability, T/C [10] | viability, T/C [11] | viability, T/C [12] | viability, T/C [13] | viability, T/C [14] | viability, T/C [15] | viability, T/C [16] | viability, T/C [17] | viability, T/C [18] | viability, T/C [19] | viability, T/C [20] | other results |
| --- | --- | --- | --- | --- | --- | --- | --- | --- | --- | --- | --- | --- | --- | --- | --- | --- | --- | --- | --- | --- | --- |
| CC(=O)OC12COC1CC(O)C1(C)C(=O)C(O)C3=C(C)C(OC(=O)C(O)C(NC(=O)OC(C)(C)C)c4ccccc4)CC(O)(C(OC(=O)c4ccccc4)C21)C3(C)C (configuration not stated) + COc1cc2nc(C)nc(NC(C)c3cc(N)cc(C(F)(F)F)c3)c2cc1OC1CCOC1 | > 3.16 µM | > 3.16 µM | > 3.16 µM | > 3.16 µM | > 3.16 µM | 116% | 113% | 122% | 135% | 132% | 112% | 116% | 125% | 120% | 126% | 130% | 127% | 132% | 142% | 141% | viability, T/C (second compound 0.1 µM, first compound 0.01 µM): 105%; viability, T/C (second compound 0.316 µM, first compound 0.01 µM): 104%; viability, T/C (second compound 1 µM, first compound 0.01 µM): 104%; viability, T/C (second compound 3.16 µM, first compound 0.01 µM): 95.1%; viability, T/C [21]: 104%; viability, T/C [22]: 121%; viability, T/C [23]: 111%; viability, T/C [24]: 119%; viability, T/C [25]: 119%; viability, T/C (second compound 10 µM, first compound 0.01 µM): 90.2%; viability, T/C [26]: 105%; viability, T/C [27]: 119%; viability, T/C [28]: 121%; viability, T/C [29]: 117%; viability, T/C [30]: 111% |
| COC(=O)c1ccc2c(C(=Nc3ccc(N(C)C(=O)CN4CCN(C)CC4)cc3)c3ccccc3)c(O)[nH]c2c1 + C=CC(=O)N1CCN(c2nc(=O)n(-c3c(C)ccnc3C(C)C)c3nc(-c4c(O)cccc4F)c(F)cc23)C(C)C1 | 3.15 µM | 2.27 µM | 2.07 µM | 2.11 µM | 1.54 µM | 109% | 111% | 102% | 103% | 49.8% | 105% | 109% | 102% | 104% | 28.1% | 113% | 111% | 110% | 98.6% | 21.9% | viability, T/C [31]: 1.26%; viability, T/C [32]: 0.55%; viability, T/C [33]: 0.74%; viability, T/C [21]: 106%; viability, T/C [22]: 110%; viability, T/C [23]: 105%; viability, T/C [24]: 95.7%; viability, T/C [25]: 25.1%; viability, T/C [34]: 0.65%; viability, T/C [26]: 89.7%; viability, T/C [27]: 70.4%; viability, T/C [28]: 79.1%; viability, T/C [29]: 69.9%; viability, T/C [30]: 17.2%; viability, T/C [35]: 0.39% |
| CC1(C)CCC(CN2CCN(c3ccc(C(=O)NS(=O)(=O)c4ccc(NCC5CCOCC5)c([N+](=O)[O-])c4)c(Oc4cnc5[nH]ccc5c4)c3)CC2)=C(c2ccc(Cl)cc2)C1 + COc1cc2nc(C)nc(NC(C)c3cc(N)cc(C(F)(F)F)c3)c2cc1OC1CCOC1 | 7.29 µM | 6.93 µM | 5.01 µM | 4.31 µM | < 0.0316 µM | 93.7% | 91.3% | 91.8% | 88.3% | 82.2% | 96.9% | 88.4% | 86% | 92.7% | 79.5% | 91.2% | 88.3% | 81.9% | 83.1% | 64.1% | viability, T/C [31]: 37.6%; viability, T/C [32]: 35.7%; viability, T/C [33]: 28%; viability, T/C [21]: 84.4%; viability, T/C [22]: 82.8%; viability, T/C [23]: 84.4%; viability, T/C [24]: 71.7%; viability, T/C [25]: 59.7%; viability, T/C [34]: 26.4%; viability, T/C [26]: 31.2%; viability, T/C [27]: 35.5%; viability, T/C [28]: 23.4%; viability, T/C [29]: 27.7%; viability, T/C [30]: 26.2%; viability, T/C [35]: 8.47% |
| CC1COCCN1c1cc(-c2ccnn2C)c2ccnc(-c3ccn[nH]3)c2n1 (configuration not stated) |  |  |  |  |  |  |  |  |  |  |  |  |  |  |  |  |  |  |  |  | viability, T/C (compound 0.01 µM): 107% [middle of 5 runs]; viability, T/C (compound 0.0316 µM): 90.6% [middle of 5 runs]; viability, T/C (compound 0.1 µM): 69.9% [middle of 5 runs]; viability, T/C (compound 0.316 µM): 62.3% [middle of 5 runs]; viability, T/C (compound 1 µM): 56.6% [middle of 5 runs]; viability, T/C (compound 3.16 µM): 58.2% [middle of 5 runs]; IC50 (curve of compound): > 3.16 µM |
